Experimental data as given in patent US20160279110A1, “COMPOSITIONS AND METHODS FOR TREATING CANCER” (UNIVERSITY OF ROCHESTER, priority 2015, published 2016).

What was measured:
[1] = test system: UPF1; assay: Western blot of UPF1 CP generation in MDCK cells; format: cell-based, canine; details: 2 μM staurosporine
Protocol: (§1) FIG. 10b is essentially as in a, but using lysates of HEK293T cells exposed to 1 μM staurosporine. FIG. 10c is essentially as in a, but using lysates of human Daudi B lymphoblasts exposed to 40 ng/mL TNF-α or 2 μg/mL doxorubicin. FIG. 10d is essentially as in a, but using lysates of human Jurkat T cells exposed to 1 μM staurosporine. FIG. 10e is essentially as in a, but using lysates of canine MDCK cells exposed to 2 μM staurosporine. FIG. 10f is essentially as in a, but using lysates of bovine MDBK cells exposed to 2 μM staurosporine. FIG. 10g is essentially as in a, but using lysates of Chinese Hamster Ovary (CHO) cells exposed to 2 μM staurosporine. FIG. 10h is essentially as in a, but using lysates of African green monkey COS-7 cells exposed to 2 μM staurosporine or 2 μg/mL doxorubicin. At least two apoptotic inducers were used for each cell line, and at least two cell lines were tested with each apoptotic inducer.
(§2) Cells were lysed, and protein was isolated using hypotonic buffer that consists of 10 mM Tris-C1, pH 7.4, 10 mM NaCl, 2 mM EDTA, 0.5% Triton X-100, 2 mM benzamidine, 1 mM PMSF, NEM (50 μg/mL), 1× phosphatase inhibitor cocktail (Roche), and 1× protease inhibitor cocktail (Roche; Basel, Switzerland). […] Immunoreactivity was assessed using SuperSignal West Pico or Femto (Pierce Biotechnology; Waltham, Mass.).

[2] = test system: UPF1; assay: Western blot of UPF1 CP generation in MDBK cells; format: cell-based, bovine; details: 2 μM staurosporine
Protocol: as §1, §2

[3] = test system: UPF1; assay: Western blot of UPF1 CP generation in Jurkat T cells; format: cell-based, human; details: 1 μM staurosporine
Protocol: as §1
as §2, with “Mass.). […]” for “Mass.).”

[4] = test system: UPF1; assay: Western blot of UPF1 CP generation in COS-7 cells; format: cell-based, African green monkey; details: COS-7, 2 μM staurosporine or 2 μg/mL doxorubicin
Protocol: as §1, §2

[5] = test system: UPF1; assay: Western blot of UPF1 CP generation in CHO cells; format: cell-based, Chinese hamster; details: 2 μM staurosporine
Protocol: as §1, §2

[6] = test system: UPF1; assay: Western blot of UPF1 CP generation in HEK293T cells; format: cell-based, human; details: 300 μg/mL CHX or 1 μM staurosporine
Protocol: as §1
as §2, with “Mass.). […]” for “Mass.).”

[7] = test system: UPF1; assay: Western blot of UPF1 CP generation in HeLa cells; format: cell-based, human
Protocol: […] At least two apoptotic inducers were used for each cell line, and at least two cell lines were tested with each apoptotic inducer.
UPF1 CP may result from cleavage of endogenous UPF1 or the transfected construct, but the use of anti-FLAG allows unambiguous assignment of UPF1-FLAG CP as derived from MYC-UPF1-FLAG. α, anti; h, hour(s). […] To serve as molecular weight standards for UPF1 CP, lysates of MCF7 cells transiently expressing a UPF1-FLAG protein encompassing the residues specified were also analyzed. […] The D37 cleavage site encompassing P4-P1 residues is boxed. […] Immunoblots are representative of at least 2 independent experiments.
as §2, with “Mass.). […]” for “Mass.).”
Inventories of in vivo apoptotic cleavage events indicate that cleavage specificity in living cells is determined chiefly by an aspartic acid residue at the P1 position; P4-P2 residues contribute far less to specificity in cells than is indicated by in vitro-derived peptide-based substrate profiles. […]

[8] = test system: UPF1; assay: Western blot of UPF1 CP generation in C2C12 myoblasts; format: cell-based, mouse; details: C2C12, CHX 100 or 300 μg/ml, ETP 100 μM 5 h pulse
Protocol: CHX concentrations were 100 or 300 μg ml^−1, and a 5 h pulse of ETP was used at 100 μM. At least two apoptotic inducers were used for each cell line, and at least two cell lines were tested with each apoptotic inducer.
as §2, with “Switzerland). After 10 minutes of incubation at 4° C., NaCl was added to 150 mM, and lysates were cleared by centrifugation.” for “Switzerland).”

[9] = test system: caspases; assay: Caspase inhibitor pre-incubation before CHX, UPF1 CP western blot in HEK293T cells; format: cell-based, human; details: inhibitor preincubated 4 h, then CHX 300 μg/ml
Protocol: FIG. 3b is a diagram of N-terminally FLAG-tagged human UPF1, showing its reactivity with anti(α)-UPF1(1-416). CH, cysteine-t histidine-rich region. […] Blots are representative of two independent experiments.
as §2, with “Switzerland). After 10 minutes of incubation at 4° C., NaCl was added to 150 mM, and lysates were cleared by centrifugation.” for “Switzerland).”, “Mass.). […]” for “Mass.).”

[10] = test system: UPF1; assay: Western blot of UPF1 CP generation in Daudi B lymphoblasts; format: cell-based, human; details: 40 ng/mL TNF-α or 2 μg/mL doxorubicin
Protocol: as §1
as §2, with “Mass.). […]” for “Mass.).”

[11] = target: T1, MYC-UPF1-FLAG WT, Q92900
T1 chain: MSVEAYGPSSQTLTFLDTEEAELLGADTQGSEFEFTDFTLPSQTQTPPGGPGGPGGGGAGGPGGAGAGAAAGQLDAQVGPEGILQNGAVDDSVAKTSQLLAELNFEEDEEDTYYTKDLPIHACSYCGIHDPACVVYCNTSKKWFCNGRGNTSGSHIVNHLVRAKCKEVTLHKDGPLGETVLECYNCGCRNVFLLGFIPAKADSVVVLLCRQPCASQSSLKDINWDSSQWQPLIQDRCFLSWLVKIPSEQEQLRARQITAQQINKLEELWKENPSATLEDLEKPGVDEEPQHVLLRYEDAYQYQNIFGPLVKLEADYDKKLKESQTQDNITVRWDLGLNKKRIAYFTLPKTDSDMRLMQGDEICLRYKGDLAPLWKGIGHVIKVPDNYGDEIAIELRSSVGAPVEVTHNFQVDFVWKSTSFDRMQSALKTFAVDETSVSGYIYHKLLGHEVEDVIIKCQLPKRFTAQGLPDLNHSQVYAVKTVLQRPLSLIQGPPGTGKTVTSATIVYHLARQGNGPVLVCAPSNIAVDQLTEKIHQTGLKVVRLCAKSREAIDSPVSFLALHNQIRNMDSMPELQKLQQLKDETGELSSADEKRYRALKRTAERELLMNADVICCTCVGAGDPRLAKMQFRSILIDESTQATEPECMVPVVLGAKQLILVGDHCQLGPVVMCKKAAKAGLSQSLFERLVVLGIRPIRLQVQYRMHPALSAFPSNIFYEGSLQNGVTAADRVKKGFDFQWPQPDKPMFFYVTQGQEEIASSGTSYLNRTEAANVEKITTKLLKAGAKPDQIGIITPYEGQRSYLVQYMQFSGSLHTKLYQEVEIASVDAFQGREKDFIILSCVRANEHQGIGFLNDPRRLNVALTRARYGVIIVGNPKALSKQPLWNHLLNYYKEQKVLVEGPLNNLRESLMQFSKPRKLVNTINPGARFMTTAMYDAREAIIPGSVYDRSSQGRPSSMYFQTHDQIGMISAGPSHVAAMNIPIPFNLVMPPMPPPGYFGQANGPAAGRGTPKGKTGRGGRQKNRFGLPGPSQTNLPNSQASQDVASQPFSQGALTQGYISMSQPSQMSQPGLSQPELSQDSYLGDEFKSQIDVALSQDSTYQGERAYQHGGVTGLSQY

Molecule: CN[C@@H]1C[C@H]2O[C@@](C)([C@@H]1OC)n1c3ccccc3c3c4c(c5c6ccccc6n2c5c31)C(=O)NC4 [staurosporine]
- UPF1 CP generation [1]: led to UPF1 CP production
- UPF1 CP generation [2]: led to UPF1 CP production
- UPF1 CP generation [3]: yielded a UPF1 CP prior to maximal cleavage of CASP3 or PARP
- UPF1 CP generation [4]: yielded a UPF1 CP
- UPF1 CP generation [5]: led to UPF1 CP production
- UPF1 CP generation [6]: yielded two UPF1 CPs, prior to full cleavage of CASP9 and CASP3

Molecule: COc1cc([C@@H]2c3cc4c(cc3[C@@H](O[C@@H]3O[C@@H]5CO[C@@H](C)O[C@H]5[C@H](O)[C@H]3O)[C@H]3COC(=O)[C@H]23)OCO4)cc(OC)c1O [ETP, etoposide]
- UPF1 CP generation ([7]; HeLa, ETP 44 μM 6 h): induced generation of a UPF1 CP before full induction of cleaved initiator caspase 9 (CASP9) and cleaved executioner CASP3
- UPF1 CP generation [8]: generated a UPF1 CP prior to maximal CASP3 cleavage

Molecule: C[C@@H]1C[C@@H]([C@H](O)CC2CC(=O)NC(=O)C2)C(=O)[C@@H](C)C1 [CHX, cycloheximide]
- UPF1 CP level relative to uncleaved UPF1 ([7]; HeLa expressing UPF1 WT, D27N or D75N, 300 μg/mL CHX, anti-FLAG immunoblot): about one-third the level of uncleaved UPF1
- UPF1 CP generation [6]: Generation of the UPF1 CP prior to full CASP9 and CASP3 cleavage
- UPF1 CP generation [8]: generated a UPF1 CP prior to maximal CASP3 cleavage

Molecule: Z-DEVD-fmk
- level of UPF1 CP after caspase inhibitor [9]: nearly undetectable

Molecule: Z-VAD-fmk
- level of UPF1 CP after caspase inhibitor [9]: nearly undetectable

Molecule: TNF-α
- UPF1 CP generation [10]: led to generation of the UPF1 CP prior to maximal PARP cleavage

B1: Active recombinant Caspase 7 (protein)
chain: AKPDRSSFVPSLFSKKKKNVTMRSIKTTRDRVPTYQYNMNFEKLGKCIIINNKNFDKVTGMGVRNGTDKDAEALFKCFRSLGFDVIVYNDCSCAKMQDLLKKASEEDHTNAACFACILLSHGEENVIYGKDGVTPIKDLTAHFRGDRCKTLLEKPKLFFIQACRGTELDDGIQADSGPINDTDANPRYKIPVEADFLFAYSTVPGYYSWRSPGRGSWFVQALCSILEEHGKDLEIMQILTRVNDRVARHFESQSDDPHFHEKKQIPCVVSMLTKELYFSQ
- in vitro caspase cleavage, western blot [11]: CASP3 and CASP7 cleaved MYC-UPF1-FLAG WT

B2: Active recombinant Caspase 3 (protein)
chain: SGISLDNSYKMDYPEMGLCIIINNKNFHKSTGMTSRSGTDVDAANLRETFRNLKYEVRNKNDLTREEIVELMRDVSKEDHSKRSSFVCVLLSHGEEGIIFGTNGPVDLKKITNFFRGDRCRSLTGKPKLFIIQACRGTELDCGIETDSGVDDDMACHKIPVEADFLYAYSTAPGYYSWRNSKDGSWFIQSLCAMLKQYADKLEFMHILTRVNRKVATEFESFSFDATFHAKKQIPCIVSMLTKELYFYH
- in vitro caspase cleavage, western blot [11]: CASP3 and CASP7 cleaved MYC-UPF1-FLAG WT
